In patent publication US7303765B2, “Ultrafine-L-carnitine, methods of preparing the same, compositions containing the same, and methods of using the same” (Sigma-Tau HealthScience S.p.A., priority 1999, dated 2007):

Experiments:
Solubility in water = assay type: physicochemical
Description: Ultra-fine L-carnitine fumarate so prepared has the following analytical properties: […]

[1] = Bioavailability / human plasma levels after dosing; settings: in vivo
Description: Transformers may therefore accomplish the target dosage using a reduced active bolus, an efficiency which translates to cost savings. In principle, consumers purchase nutritionals on a pure weight volume (W/V) basis.

[2] = Oral toxicity (LD50) in rats; settings: rat, in vivo

Structure (SMILES): C[N+](C)(C)C[C@H](O)CC(=O)[O-].O=C(O)/C=C/C(=O)O [Ultra-fine L-carnitine fumarate, L-carnitine fumarate]
- Solubility (Solubility in water): 5 g/100 ml in water
- bioavailability through the mitochondrial pathway ([1]; human): increased bioavailability
- human plasma levels [1]: equal those of conventionally sized L-carnitine tartrate
- LD50 [2]: > 8000 mg/kg
